From patent publication US20200031920A1, “Combination Therapy for Treating Cancer” (The George Washington University, priority 2017, published 2020)

Experiments:
SKOV3 CR cells = assay: combinational high throughput screen with cisplatin; format: cell-based; details: in combination with DMSO, 1 μM cisplatin or 20 μM cisplatin
Text: A combinational HTS using multiple compound libraries including NPC (NIH Pharmaceutical Collection), MIPE (Mechanism interrogation plate), and LOPAC (The Library of Pharmacologically Active Compounds) was used to identify compounds that can overcome cisplatin resistance of SKOV3 CR cells (FIG. 5). The library of pharmacologically active compounds (LOPAC®) of 1280 compounds (1) was purchased from Sigma. The NCGC Pharmaceutical Collection (NPC) of 2816 compounds and mechanism interrogation plate (MIPE) library of 1920 compounds were previously described. Bromberg, J Clin Invest 109: 1139-1142 (2002) and Buchert et al., Oncogene 35: 939-951 (2016). Compounds from all libraries were obtained as powder and dissolved in dimethyl sulfoxide (DMSO) […]. Combinational HTS was performed as previously described. Szasz et al., Oncotarget 7: 49322-49333 (2016). A total of 6,016 compounds were screened. […] In the second screen, these 112 compounds were selected for a dose-response confirmation screen in combination with DMSO, 1 μM cisplatin or 20 μM cisplatin (FIG. 5).

JAK2 = JAK2 (Homo sapiens, UniProt O60674); assay: in vitro kinase profiling, more than 450 human kinases; format: binding; details: data not shown
Description: To determine whether LY2784544 is able to sensitize SKOV3 CR cells to cisplatin in vivo, SKOV3 CR cells were implanted subcutaneously into nude mice. When the tumor volume reached 100 mm^3, mice were randomized to receive intraperitoneal injections of vehicle, cisplatin (8 mg/kg on days 1 and 8), LY2784544 (15 mg/kg/d from day 1 to day 14), or the combination of cisplatin and LY2784544. […] To evaluate whether this in vivo tumor suppression was through inhibition of the JAK2 pathway and increased apoptosis, the tumor samples four days after full dosage treatment were collected. […] Quantification of phosphorylated JAK2 and TUNEL staining in tumor tissues treated was performed (FIG. 28). […] To confirm the selectivity of LY2784544, an in vitro kinase profiling was conducted to examine the interaction of LY2784544 with more than 450 human kinases.

[1] = system: reactive oxygen species (ROS); assay: ROS production (CellROX Orange reagent); format: cell-based; details: SKOV3 cells, YCG063 20 μM, cisplatin 1 μM, 24 hr
Description: FIG. 69 are bar graphs ((A)-(C) and (E)-(F)) and illustrations ((D) and (G)) showing that reactive oxygen species (ROS) induces IL-11 expression. (A) is a bar graph showing quantification of ROS production in SKOV3 and SKOV3 CR cells. Data are represented as means±SD from three independent experiments. **p<0.01. Scale bar, 100 μm. (B) is a bar graph showing quantification of ROS production in SKOV3 CR cells after treatment with the ROS inhibitor YCG063 at 20 μM for 24 hr. Data are represented as means±SD from three independent experiments. ***p<0.001. (C) is a bar graph showing IL-11 levels measured by ELISA in the medium of SKOV3 CR cells treated with YCG063 at 20 μM for 24 hr. Data are represented as mean±SD from three independent experiments performed in triplicate. ***p<0.001. […] (E) is a bar graph showing quantification of ROS production in SKOV3 cells after treated with the ROS inhibitor YCG063 (20 μM), cisplatin (1 μM), or both for 24 hr. […] (F) is a bar graph showing IL-11 levels measured by ELISA in SKOV3 cells treated with YCG063 (20 μM), cisplatin (1 μM) or both for 24 hr. […]
DNA damage induces generation of reactive oxygen species (ROS). […] ROS was detected with a live cell-permeable, fluorophore CellROX Orange reagent (Thermo Fisher Scientific) according to the manufacturer's instructions. […] ROS intensity was analyzed using ImageJ (NIH) software. […]

IL-11 = IL-11 secretion by ELISA in cell culture medium; format: cell-based, human; details: SKOV3 cells, various small doses of cisplatin, four days
Description: FIG. 69 are bar graphs ((A)-(C) and (E)-(F)) and illustrations ((D) and (G)) showing that reactive oxygen species (ROS) induces IL-11 expression. (A) is a bar graph showing quantification of ROS production in SKOV3 and SKOV3 CR cells. Data are represented as means±SD from three independent experiments. **p<0.01. Scale bar, 100 μm. (B) is a bar graph showing quantification of ROS production in SKOV3 CR cells after treatment with the ROS inhibitor YCG063 at 20 μM for 24 hr. Data are represented as means±SD from three independent experiments. ***p<0.001. (C) is a bar graph showing IL-11 levels measured by ELISA in the medium of SKOV3 CR cells treated with YCG063 at 20 μM for 24 hr. Data are represented as mean±SD from three independent experiments performed in triplicate. ***p<0.001. (D) is an illustration showing an immunoblot of phosphorylated JAK2 and STAT5 in SKOV3 CR cells treated with YCG063 (20 μM) for 24 hr. (E) is a bar graph showing quantification of ROS production in SKOV3 cells after treated with the ROS inhibitor YCG063 (20 μM), cisplatin (1 μM), or both for 24 hr. Data are represented as means±SD from three independent experiments. **p<0.01, ***p<0.001, n.s. means not significant by one-way ANOVA. (F) is a bar graph showing IL-11 levels measured by ELISA in SKOV3 cells treated with YCG063 (20 μM), cisplatin (1 μM) or both for 24 hr. Data are represented as mean±SD from three independent experiments performed in triplicate. ***p<0.001 by one-way ANOVA. (G) is an illustration showing an immunoblot of phosphorylated JAK2 and STAT5 in SKOV3 CR cells treated with YCG063 (20 μM), cisplatin (1 μM) or both for 24 hr.
Next, the factor from medium that contributes to cisplatin resistance of SKOV3 CR cells was investigated. […] The cell-free culture medium, mouse serum, and patient serum were analyzed for IL-11 levels using a human IL-11 ELISA kit (R&D Systems) according to the manufacturer's instructions. The absorbance was read at 450 nm using a microplate reader (BioTek). The data were normalized to the cell number. […]

Sequence of JAK2 (O60674 whole entry): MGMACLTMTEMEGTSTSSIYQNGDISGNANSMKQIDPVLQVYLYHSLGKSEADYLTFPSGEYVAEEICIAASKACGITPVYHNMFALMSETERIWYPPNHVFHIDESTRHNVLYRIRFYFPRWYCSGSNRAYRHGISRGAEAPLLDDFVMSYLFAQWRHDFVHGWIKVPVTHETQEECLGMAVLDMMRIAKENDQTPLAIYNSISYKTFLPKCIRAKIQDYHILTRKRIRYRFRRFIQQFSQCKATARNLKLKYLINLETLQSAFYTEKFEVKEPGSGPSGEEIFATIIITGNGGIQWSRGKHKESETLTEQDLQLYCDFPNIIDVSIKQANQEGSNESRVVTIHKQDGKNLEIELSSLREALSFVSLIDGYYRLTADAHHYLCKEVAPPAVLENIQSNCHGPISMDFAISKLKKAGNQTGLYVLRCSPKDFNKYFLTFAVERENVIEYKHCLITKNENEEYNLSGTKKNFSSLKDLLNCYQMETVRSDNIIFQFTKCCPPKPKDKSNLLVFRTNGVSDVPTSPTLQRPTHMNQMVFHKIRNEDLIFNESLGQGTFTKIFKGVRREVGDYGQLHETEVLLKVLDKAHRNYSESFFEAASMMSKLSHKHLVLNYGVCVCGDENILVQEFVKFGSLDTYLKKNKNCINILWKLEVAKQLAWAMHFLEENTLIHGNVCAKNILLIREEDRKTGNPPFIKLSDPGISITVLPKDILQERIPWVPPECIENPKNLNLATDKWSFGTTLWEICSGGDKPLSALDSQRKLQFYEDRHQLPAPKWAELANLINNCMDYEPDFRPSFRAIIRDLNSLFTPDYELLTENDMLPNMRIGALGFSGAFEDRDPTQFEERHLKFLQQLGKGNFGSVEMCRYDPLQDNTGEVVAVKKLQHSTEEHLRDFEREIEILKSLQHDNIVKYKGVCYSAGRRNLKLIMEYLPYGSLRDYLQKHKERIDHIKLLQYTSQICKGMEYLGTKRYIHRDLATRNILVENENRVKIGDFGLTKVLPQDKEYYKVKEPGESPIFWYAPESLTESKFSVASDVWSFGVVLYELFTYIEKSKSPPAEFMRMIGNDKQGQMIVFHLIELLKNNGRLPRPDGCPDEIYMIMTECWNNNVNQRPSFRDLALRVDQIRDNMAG

Cc1cc(Nc2cc(CN3CCOCC3)c3nc(C)c(Cc4ccc(Cl)cc4F)n3n2)n[nH]1 [LY2784544]
sensitization to cisplatin in second (dose-response confirmation) screen (SKOV3 CR cells): significantly sensitize SKOV3 CR cells to cisplatin
binding selectivity among kinases (JAK2): stronger binding to JAK2 than JAK1 and TYK2

N.N.[Cl][Pt][Cl] [cisplatin]
ROS production [1]: activated ROS production
IL-11 secretion (IL-11): increased in a cisplatin dose dependent manner
